Test results reported in patent US20090131309A1, “ICA512 COUPLES INSULIN SECRETION AND GENE EXPRESSION IN BETA-CELLS” (Technische Universität Dresden Medizinizche Fakultät Carl …, priority 2004, published 2009).

Columns and labels:
μ-calpain = molecular target: T1, μ-calpain (Homo sapiens, UniProt P07384); type: biochemical; conditions: bacterially expressed ICA512 (601-979), 50 μM Ca2+, 30 μM inhibitor
T1 sequence (P07384 1-714): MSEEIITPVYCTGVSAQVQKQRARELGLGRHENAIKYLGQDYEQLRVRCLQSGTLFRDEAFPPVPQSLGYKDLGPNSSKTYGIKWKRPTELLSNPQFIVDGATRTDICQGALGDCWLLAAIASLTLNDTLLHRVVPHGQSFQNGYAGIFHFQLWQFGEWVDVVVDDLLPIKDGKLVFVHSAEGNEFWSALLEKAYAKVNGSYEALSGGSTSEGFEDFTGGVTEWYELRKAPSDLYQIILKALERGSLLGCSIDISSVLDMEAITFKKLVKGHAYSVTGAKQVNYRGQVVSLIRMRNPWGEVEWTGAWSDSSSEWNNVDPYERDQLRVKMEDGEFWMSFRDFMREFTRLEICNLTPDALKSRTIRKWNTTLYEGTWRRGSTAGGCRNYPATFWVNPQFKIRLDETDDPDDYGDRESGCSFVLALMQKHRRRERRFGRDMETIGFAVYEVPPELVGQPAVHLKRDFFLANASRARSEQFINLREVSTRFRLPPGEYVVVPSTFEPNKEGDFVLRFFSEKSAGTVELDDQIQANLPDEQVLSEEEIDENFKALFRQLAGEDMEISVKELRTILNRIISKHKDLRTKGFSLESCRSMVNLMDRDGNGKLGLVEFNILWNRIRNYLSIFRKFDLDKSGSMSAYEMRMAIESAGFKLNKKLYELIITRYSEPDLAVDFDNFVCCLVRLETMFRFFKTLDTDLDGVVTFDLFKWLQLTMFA
T1 sequence (P04632 1-268 partner): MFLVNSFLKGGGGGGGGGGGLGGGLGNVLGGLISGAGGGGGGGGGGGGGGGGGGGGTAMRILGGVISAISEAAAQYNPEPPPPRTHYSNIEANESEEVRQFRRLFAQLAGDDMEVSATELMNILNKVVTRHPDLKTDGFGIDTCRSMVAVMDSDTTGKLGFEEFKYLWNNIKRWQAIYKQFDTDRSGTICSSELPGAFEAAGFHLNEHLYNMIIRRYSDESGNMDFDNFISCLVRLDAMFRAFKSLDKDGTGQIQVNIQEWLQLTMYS
Experimental: In-vitro μ-calpain cleavage. 3 μg bacterially expressed His-ICA512 cytoplasmic domain (residues 601-979) (Ort et al., 2001) were incubated in 20 μl buffer (20 mM Tris-HCl pH 7.5, 50 μM CaCl2, 1 mM L-cysteine) at room temperature with or without 150 ng μ-calpain (Calbiochem) and 30 μM calpeptin or MG-132 for 1, 5, 15 or 45 minutes. The reactions were stopped by addition of an equal volume of 2×SDS sample buffer. Following SDS-PAGE, proteins were stained with Coomassie Blue (Bio-Rad).

pro-ICA512 = assay: Immunoblot for pro-ICA512 and ICA512-TMF in INS-1 cells; type: cell-based, rat; conditions: 60 μM Calpeptin
Experimental: Culture of INS-1 cells. INS-1 cells were grown as described^27. In some instances cells were pre-incubated for 1 hour in resting buffer (0 mM glucose, 5 mM KCl) and then for 2 or 6 hours in resting or stimulating (25 mM glucose, 55 mM KCl) buffers as described^7. Calpeptin (Calbiochem) was added in the last 15 minutes of the pre-incubation, and then for the entire following period before cells were harvested. Cells were stimulated with 20 nM human growth hormone (hGH) for 20 minutes following 18 hours incubation in low serum medium (LSM) containing RPMI-1640, 11 mM glucose, 0.5% FBS 25 mM HEPES, 1% penicillin-streptomycin and 0.05 mM β-mercaptoethanol. After washing, cells were either harvested or incubated in LSM for 6 additional hours. For immunoprecipitation cells were collected 1 hour after stimulation with hGH.
Cell extracts and western blotting. INS-1 cells and pancreatic islets were harvested at 4° C. in RIPA buffer [50 mM Tris-HCl at pH 8.0, 150 mM NaCl, 1% NP-40, 0.1% SDS, 0.5% sodium deoxycholate, and 1× protease inhibitor cocktail (Sigma)] to obtain total extracts. Insoluble material was removed by centrifugation. Cytosolic and nuclear extracts were prepared using the NE-PER Nuclear and Cytoplasmic Extraction Reagents (Pierce). Proteins were separated by 8-10% SDS-PAGE and immunoblotted with the following antibodies: mouse monoclonals anti-ICA512^7, anti-STAT5 (Santa Cruz), anti-γ-tubulin and anti-HA (Sigma); rabbit anti-PY-STAT5 and anti-STAT3 (Cell Signaling); affinity purified goat anti-GFP IgGs. Chemiluminescence was developed using the Supersignal West Pico or Femto kits (Pierce) and detected with a LAS 3000 Bioimaging System (Fuji). Protein signals were quantified with the Image Gauge v3.45 software (Fuji). Half the amount of nuclear extract proteins were immunoblotted relative to total and cytosolic extract proteins.

ICA512-TMF = assay: Stimulus-induced decrease of ICA512-TMF in rat pancreatic islets (western blot); type: cell-based; conditions: purified rat pancreatic islets; with or without 60 μM calpeptin
Experimental: Islet isolation and cell culture. Pancreatic islets were isolated from female Wistar rats by collagenase digestion, purified by density gradient centrifugation, and cultured (400/60 mm culture dish) as described previously (26). INS-1 cells were grown as described (27). Cell extracts and western blotting. Wild type and transfected INS-1 cells and rat pancreatic islets (350-450) were pre-incubated for 60 minutes in resting buffer containing 0 mM glucose and 5 mM KCl and then incubated for various times in fresh resting or stimulating buffer including 25 mM glucose and 55 mM KCl, as previously described (7). […] Next, the cells were washed with ice cold PBS, and extracted in lysis buffer (10 mM Tris-HCl at pH 8.0, 140 mM NaCl, 1% Triton X-100, 1 mM EDTA, 1 mM PMSF, and 1% protease inhibitor cocktail (Sigma, St. Louis, Mo.) at 4° C. Cytosolic and nuclear extracts were prepared using the NE-PER Nuclear and Cytoplasmic Extraction Reagents (Pierce, Rockford, Ill.) in accordance with the manufacturer's instructions. Protein concentration was measured using the Bio-Rad Protein Assay Reagent (Bio-Rad, Hercules, Calif.). Equivalent amount of protein was separated by 8-10% SDS-PAGE, except for nuclear extracts, in which case half of the protein were loaded compared to the corresponding cytosolic extracts. […] Quantitation of protein signals was performed with the Image Gauge v3.45 software (Fuji).

Compound: CCCC[C@@H](C=O)NC(=O)[C@H](CC(C)C)NC(=O)OCc1ccccc1 [calpeptin]
- Cleavage by μ-calpain (μ-calpain): inhibited
- rapid induction of pro-ICA512 (pro-ICA512; cells stimulated for 2 hours): did not prevent the rapid induction of pro-ICA512
- greater induction of pro-ICA512 and decrease of ICA512-TMF (pro-ICA512; cells stimulated for 6 hours): partially inhibited
- decrease of ICA512-TMF upon stimulation (ICA512-TMF): calpeptin-sensitive decrease of ICA512-TMF
